Reference: patent publication US20060159777A1, “Aqueous acaricidal solution” (SOLVAY (SOCIETE ANONYME), priority 2002, published 2006)
Where two headings read alike, the source gives them in different places.

Legend:
[1] = system: dermatophagoides pteronyssinus
Method: Acarids (dermatophagoides pteronyssinus) originating from a laboratory strain raised on a substrate consisting of a 50/50 (mass/mass) mixture of wheatgerm and of brewer's yeast as flakes calibrated by sieving (fragments of less than 1 mm in size) were used. The temperature was between 23 and 25° C. and the relative humidity was maintained at 75% by placing in the presence of a saturated aqueous ammonium sulphate solution ([NH4)2SO4]); the strain was conserved in the dark.
Pieces of standard cotton wool (150 g/m^2) were pre-infested with approximately 200 acarids of all stages.
The pieces of cotton wool were then treated by sprinkling with an aqueous solution obtained by mixing 10, 30 or 50 g/l of sodium bicarbonate into water.
Two rates of application of the solution were used: 30 and 50 ml/m^2.
The sodium bicarbonate solution was sprayed and projected evenly and precisely over the cotton wool surfaces.
The mortality of the acarids was noted after 15 min, 1 h, 2 h, 4 h and 24 h.
A control batch of acarids was monitored in parallel so as to determine the natural mortality of the acarids subjected to spraying with the same volume of water.
Each experimental series was repeated three times and the means of the mortality results obtained were taken.

[2] = system: dermatophagoides pteronyssinus; conditions: approximately 200 acarids deposited
Method: The procedure was carried out as in example 1, except that the acaricidal aqueous solution was not applied by sprinkling, but the pieces of standard cotton wool (150 g/m^2) were immersed in baths of sodium bicarbonate solution.
Three sodium bicarbonate concentrations were used: 10, 30 and 50 g/l.
After drying of the textiles, approximately 200 acarids of all stages were deposited thereon and the acarid mortality was measured as a function of time.
The acarid mortality was noted after 3 and 6 weeks.
Each experimental series was also repeated three times and the means of the mortality results obtained were taken.

## O=C([O-])O.[Na+] [Sodium bicarbonate, sodium bicarbonate]
[1]; 10 g bicarb/1, 30 ml/m^2 (0.3 g bicarb/m^2), contact time 15 minutes
  % mortality: 0.0%
[1]; 10 g bicarb/1, 30 ml/m^2 (0.3 g bicarb/m^2), contact time 1 hour
  % mortality: 0.0%
[1]; 10 g bicarb/1, 30 ml/m^2 (0.3 g bicarb/m^2), contact time 2 hours
  % mortality: 0.2%
[1]; 10 g bicarb/1, 30 ml/m^2 (0.3 g bicarb/m^2), contact time 4 hours
  % mortality: 0.5%
[1]; 10 g bicarb/1, 30 ml/m^2 (0.3 g bicarb/m^2), contact time 24 hours
  % mortality: 18.5%
[1]; 10 g bicarb/1, 50 ml/m^2 (0.5 g bicarb/m^2), contact time 15 minutes
  % mortality: 0.0%
[1]; 10 g bicarb/1, 50 ml/m^2 (0.5 g bicarb/m^2), contact time 1 hour
  % mortality: 0.0%
[1]; 10 g bicarb/1, 50 ml/m^2 (0.5 g bicarb/m^2), contact time 2 hours
  % mortality: 2.1%
[1]; 10 g bicarb/1, 50 ml/m^2 (0.5 g bicarb/m^2), contact time 4 hours
  % mortality: 20.9%
[1]; 10 g bicarb/1, 50 ml/m^2 (0.5 g bicarb/m^2), contact time 24 hours
  % mortality: 35.8%
[1]; 30 g bicarb/1, 30 ml/m^2 (0.9 g bicarb/m^2), contact time 15 minutes
  % mortality: 0.0%
[1]; 30 g bicarb/1, 30 ml/m^2 (0.9 g bicarb/m^2), contact time 1 hour
  % mortality: 0.0%
[1]; 30 g bicarb/1, 30 ml/m^2 (0.9 g bicarb/m^2), contact time 2 hours
  % mortality: 0.0%
[1]; 30 g bicarb/1, 30 ml/m^2 (0.9 g bicarb/m^2), contact time 4 hours
  % mortality: 0.7%
[1]; 30 g bicarb/1, 30 ml/m^2 (0.9 g bicarb/m^2), contact time 24 hours
  % mortality: 19.7%
[1]; 30 g bicarb/1, 50 ml/m^2 (1.5 g bicarb/m^2), contact time 15 minutes
  % mortality: 0.0%
[1]; 30 g bicarb/1, 50 ml/m^2 (1.5 g bicarb/m^2), contact time 1 hour
  % mortality: 0.0%
[1]; 30 g bicarb/1, 50 ml/m^2 (1.5 g bicarb/m^2), contact time 2 hours
  % mortality: 3.4%
[1]; 30 g bicarb/1, 50 ml/m^2 (1.5 g bicarb/m^2), contact time 4 hours
  % mortality: 25.1%
[1]; 30 g bicarb/1, 50 ml/m^2 (1.5 g bicarb/m^2), contact time 24 hours
  % mortality: 39.9%
[1]; 50 g bicarb/1, 30 ml/m^2 (1.5 g bicarb/m^2), contact time 15 minutes
  % mortality: 0.0%
[1]; 50 g bicarb/1, 30 ml/m^2 (1.5 g bicarb/m^2), contact time 1 hour
  % mortality: 0.0%
[1]; 50 g bicarb/1, 30 ml/m^2 (1.5 g bicarb/m^2), contact time 2 hours
  % mortality: 0.0%
[1]; 50 g bicarb/1, 30 ml/m^2 (1.5 g bicarb/m^2), contact time 4 hours
  % mortality: 5.2%
[1]; 50 g bicarb/1, 30 ml/m^2 (1.5 g bicarb/m^2), contact time 24 hours
  % mortality: 88.0%
[1]; 50 g bicarb/1, 50 ml/m^2 (2.5 g bicarb/m^2), contact time 15 minutes
  % mortality: 0.0%
[1]; 50 g bicarb/1, 50 ml/m^2 (2.5 g bicarb/m^2), contact time 1 hour
  % mortality: 0.0%
[1]; 50 g bicarb/1, 50 ml/m^2 (2.5 g bicarb/m^2), contact time 2 hours
  % mortality: 2.8%
[1]; 50 g bicarb/1, 50 ml/m^2 (2.5 g bicarb/m^2), contact time 4 hours
  % mortality: 58.9%
[1]; 50 g bicarb/1, 50 ml/m^2 (2.5 g bicarb/m^2), contact time 24 hours
  % mortality: 95.7%
[2]; immersion bath 10 g/l, after 3 weeks
  Survivors: 212.8
[2]; immersion bath 10 g/l, after 6 weeks
  Survivors: 818.3
[2]; immersion bath 30 g/l, after 3 weeks
  Survivors: 153.5
[2]; immersion bath 30 g/l, after 6 weeks
  Survivors: 245.0
[2]; immersion bath 50 g/l, after 3 weeks
  Survivors: 53.5
[2]; immersion bath 50 g/l, after 6 weeks
  Survivors: 143.0
